Where two headings read alike, the source gives them in different places.
Key:
RPTEC/TERT1 cells = format: cell-based, human
Method: For high content imaging, NRK-52E and RPTEC/TERT1 cells were cultivated in µ-clear half well area microtiter plates (Greiner) according to the protocol described for the cytotoxicity assay with slight modification. Briefly, NRK-52E cells were seeded at 5,000 cells in 100 µL growth medium per well and were incubated under standard growth conditions for 48 h prior to treatment. RPTEC/TERT1 cells were seeded at 15,000 cells in 100 µL growth medium per well and incubated under standard growth conditions for 7–8 days, until cells reached confluence and started to differentiate. This was indicated by the formation of three-dimensional structures referred to as domes which were identified by regular microscopic inspection of the plates. Only differentiated cell cultures with detectable domes were assayed. Cells of both cell lines were treated with serially diluted Polymyxin B sulfate (concentration range 7.8 to 2,000 µM) for 1, 2, 4, 6, or up to 24 h. The assay was carried out on three biological replicates defined as three different non-consecutive passages of the cell culture. Each biological replicate at each treatment concentration was assayed in triplicate wells per plate.
Following treatment, cells were stained with two different combinations of fluorescent dyes: NRK-52E cells with 50 pg/μL LysoView™ 633 (Biotium) and 1 µM SYTO 16 (Thermo Scientific), respectively, for lysosomes and nuclei; RPTEC/TERT1 cells with 10 nM LysoTracker™ Red (Thermo Scientific) and 10 ng/μL Hoechst 33342 (Merck-Sigma Aldrich), respectively, for lysosomes and nuclei. For each cell line a staining solution was obtained by mixing the lysosomes and nuclei dyes in cell culture medium at the concentrations indicated above. The cells were stained by replenishing the medium for 100 µL of staining solution per well followed by incubation at 37°C and 5% CO2 for 30 min before imaging.
Images were acquired with a fully automated fluorescence confocal Opera™ QEHS system (PerkinElmer, United Kingdom) using a ×40 air UPlanApo objective (Olympus) with 0.85 numerical aperture. NRK-52E cells stained with the dyes SYTO 16 and LysoView™633 were imaged with the laser lines 488 and 635 nm, using a 488/561/635 nm primary dichroic mirror, a 510 nm long pass (LP) detection dichroic mirror, a 540/75 nm band pass (BP) emission filter for SYTO 16 and a 690/50 nm BP emission filter for LysoView™ 633. RPTEC/TERT1 cells stained with the dyes Hoechst 33342 and LysoTracker™Red were imaged with the laser lines 405 and 561 nm, using a 405/561/635 nm primary dichroic mirror, a 580 nm LP detection dichroic mirror, a 450/50 nm BP emission filter for Hoechst 33342 and a 600/40 nm BP emission filter for LysoTracker™Red. To prevent cross talk of the fluorescent signals, each dye was imaged consecutively using the combination of lasers and filters described above. The settings for laser power, exposure time and focal height were kept constant for each cell line across all the experiments. For NRK-52E cells images were acquired at 25 randomly distributed positions in a well at a single focal plane whereas for RPTEC/TERT1 cells due to the development of dome structures images were acquired at 9 random positions at three focal planes each 1 μm apart.
The images were analyzed by custom-made image analysis scripts either with the imaging analysis software Acapella (version 2.8 PerkinElmer) or Columbus (version 2.4.0 PerkinElmer). The scripts included modules for the identification and counting of the cell nuclei to extrapolate the number of cells per well, for definition of a cytoplasm surrounding the nucleus, for identification and counting of the lysosome vesicles within the cytoplasm. Additional cellular parameters included the nuclei size, intensity, the cell size (cell area), the lysosome size (lysosome area), intensity and the number of lysosomes normalized by the cell area to compensate for difference in size of the cells.

[1] = cited from earlier work
Excerpt: Plasma/Serum Treatment KE BMC10 [µM] Concentration MOE [µM] RPTEC/TERT1 / Human KE1 4.2 1.0 - 7.4 Polymyxin B KE2 6.8 1.7 - 11.9 0.57 – 4.1 (1,2 ...

[2] = RPTEC/TERT1, 250 µM, high content imaging

Substance | Effect on lysosomal endpoints in high content screening (RPTEC/TERT1 cells; RPTEC/TERT1, 24 h, 7.8 to 2000 µM (smaller range for CdCl2 and 4-aminophenol), triplicate experiments, Figure S1) | Plasma/Serum Concentration ([1]; human, cmax or css at therapeutic or known nephrotoxic doses, ref 3,4 (Tran et al., 2016; Sorli et al., 2017)) | Treatment time at which nuclear changes were first recorded (RPTEC/TERT1 cells; RPTEC/TERT1, 125 µM, high content imaging (nuclei area, nuclei intensity)) | Treatment time at which lysosomal effects were measurable (RPTEC/TERT1 cells; RPTEC/TERT1, 125 µM, high content imaging, three biological replicates in triplicate wells) | Treatment time at which lysosomal effects were measurable (RPTEC/TERT1 cells; [2]) | Treatment time at which nuclear changes were first recorded (RPTEC/TERT1 cells; [2]) | Cytotoxicity in high content screening (RPTEC/TERT1 cells; RPTEC/TERT1, 24 h treatment, Figure S1) | Plasma/Serum Concentration ([1]; human, cmax or css at therapeutic or known nephrotoxic doses, ref 1,2 (Sandri et al., 2013; Manchandani et al., 2016)) | Plasma/Serum Concentration ([1]; rat, cmax or css at human equivalent or nephrotoxic doses, ref 5 (Nilsson et al., 2015))
Colistin | most prominent effects on lysosomal endpoints | 0.42 to 8.1 µM | – | – | – | – | – | – | –
Polymyxin B | – | – | 4 h | 1 h | 1 h | 2 h | severe cytotoxicity | 0.57 to 4.1 µM | 7.0 to 7.1 µM
